Reference: PMC4920673, “Nitroimidazole carboxamides as antiparasitic agents targeting Giardia lamblia, Entamoeba histolytica and Trichomonas vaginalis” (European Journal of Medicinal Chemistry, 2016)
Converted amounts (≈) assume the structure as drawn. Read-outs that look alike come from different tables or passages of the source.

Key:
G. lamblia WB (MtzS) = experiment: ATP-bioluminescence growth/survival EC50 assay, G. lamblia WB; settings: for EC50: Giardia duodenalis; for S.I (CC50/EC50): average cytotoxicity against HEK293 and HepG2 / G. lamblia WB activity
Protocol: (§1) Compounds were screened for antiparasitic activity using an ATP-bioluminescence based assay for cell growth and survival, [24]. […] Viable cell numbers were determined in triplicate using the CellTiter-Glo Luminescent Cell Viability Assay.

G. lamblia 713M3 (MtzR) = experiment: ATP-bioluminescence growth/survival EC50 assay, G. lamblia 713M3; format: cell-based, Giardia lamblia
Protocol: as §1

E. histolytica HM1:IMSS = experiment: ATP-bioluminescence growth/survival EC50 assay, E. histolytica; format: cell-based, Entamoeba histolytica; settings: Entamoeba histolytica
Protocol: as §1

T. vaginalis F1623 = experiment: ATP-bioluminescence growth/survival EC50 assay, T. vaginalis; format: cell-based, Trichomonas vaginalis
Protocol: as §1

[1] = system: C. difficile 630 (ATCC BAA-1382); experiment: Broth microdilution MIC assay, C. difficile 630; format: cell-based, Clostridium difficile; settings: Clostridioides difficile, ATCCBAA1382
Protocol: Clostridium difficile strains (630, ATCC BAA-1382 and NAP1/027, ATCC BAA-1803) were maintained as previously described. The minimum inhibition concentration (MIC) was determined according to the CLSI Methods with modifications in broth and inoculum for C. difficile, [25], [26]. Briefly, compounds and control antibiotics were serially diluted two-fold in 96-well plates (Non-binding surface, Corning). […] C. difficile bacteria from BHIS(TA) agar plates were cultured anaerobically in BHIS at 37 °C overnight. […] An antibiotic standard, a positive growth control (no compound) and a sterility control (no bacteria) were included on each 96 well plate. Plates were covered and incubated at 37 °C for 24 h. MICs for each strain were determined as the lowest concentration without visible growth. […] Median MICs are reported with a range given when the median MIC was between two tested concentrations.

[2] = system: C. difficile NAP1/027 (ATCC BAA-1803); experiment: Broth microdilution MIC assay, C. difficile NAP1/027; format: cell-based, Clostridium difficile; settings: Clostridioides difficile, ATCCBAA1803; strain NAP1/027
Protocol: Clostridium difficile strains (630, ATCC BAA-1382 and NAP1/027, ATCC BAA-1803) were maintained as previously described. The minimum inhibition concentration (MIC) was determined according to the CLSI Methods with modifications in broth and inoculum for C. difficile, [25], [26]. Briefly, compounds and control antibiotics were serially diluted two-fold in 96-well plates (Non-binding surface, Corning). The plates were placed in a Coy anaerobic chamber (5% H2, 10% CO2, 85% N2) overnight to reduce the medium. C. difficile bacteria from BHIS(TA) agar plates were cultured anaerobically in BHIS at 37 °C overnight. […]. Compound concentration ranged from 64 to 0.03 μg/mL. An antibiotic standard, a positive growth control (no compound) and a sterility control (no bacteria) were included on each 96 well plate. Plates were covered and incubated at 37 °C for 24 h. MICs for each strain were determined as the lowest concentration without visible growth. Variance between replicates was typically within one 2-fold dilution. Median MICs are reported with a range given when the median MIC was between two tested concentrations.

[3] = Resazurin cytotoxicity assay, HEK293; format: cell-based, Human; settings: human, 24 h, highest concentration 100 μM, n = 3, read-out: CC50 HEK 293
Protocol: (§2) Human HEK293 and HepG2 cells were seeded at 3000 and 5000 cells per well in 384-well plates, respectively. Cells were cultured in Dulbecco's modified Eagle's medium with 10% FBS for 24 h at 37 °C, 5% CO2. A dilution series of compounds was added, with the highest concentration of 100 μM. […] After 24 h incubation with the compounds, 5 μM resazurin was added into each well and incubated at 37 °C for 2 h. As a negative control, 1% Triton X-100 was added into the culture media to lyse all of the cells. The fluorescence intensity was read using Polarstar Omega with excitation/emission 560/590 nm. Data were analysed with GraphPad Prism 6 software (La Jolla, California USA) to calculate CC50 values.

[4] = Resazurin cytotoxicity assay, HepG2; format: cell-based, Human; settings: human, 24 h, highest concentration 100 μM, n = 3, read-out: CC50 Hep G2
Protocol: as §2

[5] = read-out: EC50 G. lamblia WB, MtzS strain WB, minimum n = 3
[6] = read-out: pEC50 ± SE G. lamblia WB, MtzS strain WB (converted)
[7] = Giardia duodenalis, read-out: EC50 G. lamblia 713M3, MtzR strain 713M3, minimum n = 3
[8] = Giardia duodenalis, read-out: pEC50 ± SE G. lamblia 713M3, MtzR strain 713M3 (converted)
[9] = read-out: EC50 E. histolytica HM1:IMSS
[10] = read-out: pEC50 ± SE E. histolytica HM1:IMSS (converted)
[11] = Trichomonas vaginalis, read-out: EC50 T. vaginalis F1623, MtzS, minimum n = 3
[12] = Trichomonas vaginalis, read-out: pEC50 ± SE T. vaginalis F1623, MtzS (converted)
[13] = strain 630, MtzS, median of n = 4, read-out: MIC C. difficile 630
[14] = read-out: EC50 G. lamblia 713M3, MtzR strain 713M3, minimum n = 3
[15] = read-out: EC50 T. vaginalis F1623, MtzS, minimum n = 3

| Structure (SMILES) | EC50 (G. lamblia WB (MtzS); [5]) | EC50 (G. lamblia WB (MtzS); [6]) | S.I (CC50/EC50) (G. lamblia WB (MtzS)) | EC50 (G. lamblia 713M3 (MtzR); [7]) | EC50 (G. lamblia 713M3 (MtzR); [8]) | EC50 (E. histolytica HM1:IMSS; [9]) | EC50 (E. histolytica HM1:IMSS; [10]) | EC50 (T. vaginalis F1623; [11]) | EC50 (T. vaginalis F1623; [12]) | MIC [1, 13] | MIC [2] | CC50 at 24 h ([3]; HEK293 cells) | CC50 at 24 h ([4]; HepG2 cells) | CC50 at 24 h [3] | CC50 at 24 h [4] | EC50 (G. lamblia 713M3 (MtzR); [14]) | EC50 (T. vaginalis F1623; [15]) | MIC ([1]; 630 and NAP1/027 strains together or strain not given, read-out: MIC C. difficile) |
| --- | --- | --- | --- | --- | --- | --- | --- | --- | --- | --- | --- | --- | --- | --- | --- | --- | --- | --- |
| Cn1c([N+](=O)[O-])cnc1C(=O)NCc1ccccn1 [Compound 8f, 1-methyl-5-nitro-N-(pyridin-2-ylmethyl)-1H-imidazole-2-carboxamide.xTFA] | 1.6 µM | 1.58 µM | >63 | 4.1 µM | 4.07 µM | 14 µM | 14.1 µM | 1.4 µM | 1.45 µM | 64 µg/mL | 64 µg/mL | > 100 µM | > 100 µM | – | – | – | – | – |
| Cn1c([N+](=O)[O-])cnc1C(=O)N1CCCC1 [Compound 8i, (1-methyl-5-nitro-1H-imidazol-2-yl)(pyrrolidin-1-yl)methanone] | 2.9 µM | 2.88 µM | >34 | 4 µM | 3.98 µM | 22 µM | 21.9 µM | 1.7 µM | 1.74 µM | 64 µg/mL (≈ 285 µM) | 64 µg/mL (≈ 285 µM) | > 100 µM | > 100 µM | – | – | – | – | – |
| Cn1c([N+](=O)[O-])cnc1C(=O)NC1CC1 [Compound 8j, N-cyclopropyl-1-methyl-5-nitro-1H-imidazole-2-carboxamide] | 3.4 µM | 3.39 µM | >29 | 8.6 µM | 8.71 µM | 12 µM | 12 µM | 1.1 µM | 1.1 µM | > 64 µg/mL | > 64 µg/mL | > 100 µM | > 100 µM | – | – | – | – | – |
| O=C(NCc1cccc(OC(F)(F)F)c1)c1ncc([N+](=O)[O-])[nH]1 [Compound 12c, 5-nitro-N-(3-(trifluoromethoxy)benzyl)-1H-imidazole-2-carboxamide] | 0.2 µM | 0.2 µM | >500 | 15 µM | 14.8 µM | 3.6 µM | 3.63 µM | 1.9 µM | 1.91 µM | 16 µg/mL (≈ 48.5 µM) | 16 µg/mL (≈ 48.5 µM) | – | – | > 100 µM | > 100 µM | – | – | – |
| CC(NC(=O)c1ncc([N+](=O)[O-])[nH]1)c1ccc(F)cc1 (centres unmarked) [Compound 12d, N-(1-(4-fluorophenyl)ethyl)-5-nitro-1H-imidazole-2-carboxamide] | 0.4 µM | 0.398 µM | >250 | ≤ 2.5 µM | 1.26 µM | 1.7 µM | 1.7 µM | 0.6 µM | 0.589 µM | 8 µg/mL (≈ 28.8 µM) | 8 µg/mL (≈ 28.8 µM) | > 100 µM | > 100 µM | – | – | 1.3 µM | – | – |
| Cc1ccc(CCNC(=O)c2ncc([N+](=O)[O-])[nH]2)cc1 [Compound 12e, N-(4-methylphenethyl)-5-nitro-1H-imidazole-2-carboxamide] | 0.1 to 0.6 µM | 0.1 µM | >1000 | ≤ 2.5 µM | 1.35 µM | 2.1 µM | 2.09 µM | 1.2 to 2.3 µM | 1.2 µM | 8 µg/mL (≈ 29.2 µM) | 8 µg/mL (≈ 29.2 µM) | > 100 µM | > 100 µM | – | – | 1.4 µM | 1.2 µM | 4 to 16 µg/mL (≈ 14.6 to 58.3 µM) |
| O=C(NCc1ccccn1)c1ncc([N+](=O)[O-])[nH]1 [Compound 12f, 5-nitro-N-(pyridin-2-ylmethyl)-1H-imidazole-2-carboxamide] | 7.2 µM | 7.24 µM | >14 | > 20 µM | > 20 µM | 15 µM | 15.1 µM | 7.1 µM | 7.08 µM | 2 µg/mL (≈ 8.09 µM) | 2 µg/mL (≈ 8.09 µM) | > 100 µM | > 100 µM | – | – | – | – | – |
| CN(C)C(=O)c1ncc([N+](=O)[O-])[nH]1 [Compound 12g, N,N-dimethyl-5-nitro-1H-imidazole-2-carboxamide] | 8.3 µM | 8.32 µM | >12 | > 20 µM | > 20 µM | 2.7 µM | 2.69 µM | 2.4 µM | 2.34 µM | 2 µg/mL (≈ 10.9 µM) | 2 µg/mL (≈ 10.9 µM) | > 100 µM | > 100 µM | – | – | – | – | – |
| O=C(c1ncc([N+](=O)[O-])[nH]1)N1CCCC1 [Compound 12i, (5-nitro-1H-imidazol-2-yl)(pyrrolidin-1-yl)methanone] | 3.4 µM | 3.39 µM | >29 | 13 µM | 13.2 µM | 4.3 µM | 4.27 µM | 1.2 to 2.3 µM | 1.7 µM | 2 µg/mL (≈ 9.52 µM) | 2 µg/mL (≈ 9.52 µM) | > 100 µM | > 100 µM | – | – | – | 1.7 µM | – |
